{
  "source": "patent US20190175507A1",
  "about": "“COMPOSITIONS FOR ORAL ADMINISTRATION OF ACTIVE AGENTS” (Tamarisk Technologies Group LLC, priority 2016, published 2019)",
  "experiment": "Pharmacokinetics of resveratrol-containing particles in orally dosed Sprague-Dawley rats",
  "format": "in vivo",
  "settings": "rat, plasma, 20 mg/kg",
  "protocol": "Parameters were estimated using Watson pharmacokinetic software 7.4.2 (Thermo Electron Corporation) using a non-compartmental approach consistent with the various routes of administration. All parameters were generated from […] individual animal concentrations in plasma. Parameters were estimated using nominal sampling times to be relative to the start of each dose administration (within an acceptable tolerance limit). As no dose formulation samples were analyzed, the nominal calculated dose for active ingredient (20 mg/kg, as per the study protocol, was used for dose-normalization purposes). The area under the test item concentration versus time curve (AUC) was calculated using the linear-log linear trapezoidal method. AUC was not calculated for PK profiles with less than 3 consecutive quantifiable concentrations of test article at separate time points. When practical, the terminal elimination phase of each concentration versus time curve was identified using at least the final three observed concentration values. The slope of the terminal elimination phase was determined using linear regression on the unweighted concentration data. […] The parameters described below were reported to 3 significant figures. Animals were fasted overnight, food was returned 4 hours post dosing. […] Aggregated data is summarized for individual animals in Table 4, below.",
  "data": [
    {"smiles": "Oc1ccc(C=Cc2cc(O)cc(O)c2)cc1", "note": "[Unencapsulated Resveratrol, Resveratrol]", "values": [
      {"measurement": "concentration at 0.5 h", "setting": "oral", "result": 78.4, "unit": "ng/mL"},
      {"measurement": "concentration at 1 h", "setting": "oral", "result": 29.3, "unit": "ng/mL"},
      {"measurement": "concentration at 2 h", "setting": "oral", "result": 47.2, "unit": "ng/mL"},
      {"measurement": "Cmax", "setting": "po", "result": 82.4, "unit": "ng/mL"},
      {"measurement": "AUC", "setting": "po, read-out: AUC(0-x)", "result": 82.8, "unit": "ng·h/mL"}
    ]}
  ]
}
